According to paper PMC9898036, “VIP152 is a selective CDK9 inhibitor with pre-clinical in vitro and in vivo efficacy in chronic lymphocytic leukemia” (Leukemia, 2022):

Tests used:
LIMK1 = LIMK1 (Homo sapiens, UniProt P53667); test: KINOMEscan: LIMK1; format: binding; conditions: 1000 nM, read-out: Percent Control
MINK = MINK (Homo sapiens, UniProt Q8N4C8); test: KINOMEscan: MINK; format: binding; conditions: 1000 nM, read-out: Percent Control
[1] = molecular target: TYK2(JH2domain-pseudokinase) (Homo sapiens, UniProt P29597); test: KINOMEscan: TYK2(JH2domain-pseudokinase); format: binding; conditions: 100 nM, read-out: Percent Control
[2] = molecular target: JAK1(JH2domain-pseudokinase) (Homo sapiens, UniProt P23458); test: KINOMEscan: JAK1(JH2domain-pseudokinase); format: binding; conditions: 1000 nM, read-out: Percent Control
CDK4-cyclinD3 = CDK4-cyclinD3 (Homo sapiens, UniProt P11802); test: KINOMEscan: CDK4-cyclinD3; format: binding; conditions: 1000 nM, read-out: Percent Control
MST1 = MST1 (Homo sapiens, UniProt Q13043); test: KINOMEscan: MST1; format: binding; conditions: 1000 nM, read-out: Percent Control
SGK3 = SGK3 (Homo sapiens, UniProt Q96BR1); test: KINOMEscan: SGK3; format: binding; conditions: 100 nM, read-out: Percent Control
[3] = molecular target: RPS6KA5(Kin.Dom.2-C-terminal) (Homo sapiens, UniProt O75582); test: KINOMEscan: RPS6KA5(Kin.Dom.2-C-terminal); format: binding; conditions: 100 nM, read-out: Percent Control
[4] = molecular target: Transporter, Serotonin (5-Hydroxytryptamine) (SERT) (Homo sapiens, UniProt P31645); test: Eurofins Diversity Panel; format: binding; conditions: hum, Conc. 10 μM
FAK = FAK (Homo sapiens, UniProt Q05397); test: KINOMEscan: FAK; format: binding; conditions: 1000 nM, read-out: Percent Control
DDR1 = DDR1 (Homo sapiens, UniProt Q08345); test: KINOMEscan: DDR1; format: binding; conditions: 1000 nM, read-out: Percent Control
ALK = ALK (Homo sapiens, UniProt Q9UM73); test: KINOMEscan: ALK; format: binding; conditions: 1000 nM, read-out: Percent Control
[5] = molecular target: RPS6KA4(Kin.Dom.2-C-terminal) (Homo sapiens, UniProt O75676); test: KINOMEscan: RPS6KA4(Kin.Dom.2-C-terminal); format: binding; conditions: 100 nM, read-out: Percent Control
SIK = SIK (Homo sapiens, UniProt P57059); test: KINOMEscan: SIK; format: binding; conditions: 100 nM, read-out: Percent Control
OSU-CLL = test: MTS proliferation assay; format: cell-based; conditions: Homo sapiens, 24, 48, and 72 h
ROCK1 = ROCK1 (Homo sapiens, UniProt Q13464); test: KINOMEscan: ROCK1; format: binding; conditions: 100 nM, read-out: Percent Control
AMPK-alpha2 = AMPK-alpha2 (Homo sapiens, UniProt P54646); test: KINOMEscan: AMPK-alpha2; format: binding; conditions: 1000 nM, read-out: Percent Control
TNIK = TNIK (Homo sapiens, UniProt Q9UKE5); test: KINOMEscan: TNIK; format: binding; conditions: 100 nM, read-out: Percent Control
[6] = system: B-cells isolated from patients with treatment-naïve CLL; test: Limiting-cell RNA sequencing (lcRNAseq); format: cell-based, human
Protocol: CLL cells isolated from patients were sorted for CD5^+/CD19^+ into lysis buffer. Libraries were prepared and sequenced as previously described.
P-TEFb’s role in regulating transcription through POLII CTD phosphorylation is a canonical function of this complex. To interrogate the transcriptional changes associated with VIP152 treatment, we treated B-cells, isolated from four patients with treatment-naïve CLL, with 1 µM VIP152 or DMSO for two hours followed by fluorescence-assisted cell sorting for 500 live (Sytox^−), CD45^+/CD5^+/CD19^+ cells (Fig. 3A). Our group has previously defined an analysis pipeline, named CLEAR, which identifies evenly distributed reads for differentially expressed gene (DEG) analysis. […] When we looked at the expression of these differentially abundant genes via an unsupervised clustered heatmap, we noted that there was high concordance between the patient samples with clustering dependent on treatment group (Fig. 3C). The treatment did induce decreased transcript abundance of genes previously reported to be controlled by CDK9 activity, namely JUNB, BTG1, and MCL1 [45, 46]. Downregulation of the anti-apoptotic MCL1 (LFC: −1.231056 & p-value = 0.02) likely contributes to the susceptibility of primary CLL cells to apoptosis (Fig. 2F, G). […] It has been established that AU-rich element (ARE) mRNA molecules are under tight temporal regulation and control a variety of cellular processes. Moreover, the relationship between P-TEFb mediated transcription and ARE-bearing mRNA has previously been described. […] We appreciate from our limiting-cell RNA sequencing experiments that the loss of tristetrapolin (ZFP36) transcripts (LFC: −4.02; adjusted p-value: 7.97*10^−40) and the upregulation of ribosomal transcripts, likely correspond to a possible compensatory mechanism by which these cells attempt to improve translational output and maximize transcript maintenance in response to VIP152-induced transcriptional shutdown. […] We looked at transcripts which had been shown by photoactivatable ribonucleoside cross-linking and immunoprecipitation (PAR-CLIP) to interact with ZFP36 [50]. […] Additionally, we chose to look at BCL2 transcript stability as ZFP36L1 has been shown in B cell lymphoma to negatively regulate BCL2 transcript stability. We performed an mRNA stability study on patient samples treated with VIP152 with Actinomycin-D and observed an increase in the half-lives of each of these transcripts including BCL2 (Fig. 3H–M).

CDK2 = CDK2 (Homo sapiens, UniProt P24941); test: KINOMEscan: CDK2; format: binding; conditions: 1000 nM, read-out: Percent Control
DYRK1B = DYRK1B (Homo sapiens, UniProt Q9Y463); test: KINOMEscan: DYRK1B; format: binding; conditions: 1000 nM, read-out: Percent Control
GCN2(Kin.Dom.2,S808G) = GCN2(Kin.Dom.2,S808G) (Homo sapiens, UniProt Q9P2K8, S808G); test: KINOMEscan: GCN2(Kin.Dom.2,S808G); format: binding; conditions: 1000 nM, read-out: Percent Control
CSNK1A1L = CSNK1A1L (Homo sapiens, UniProt Q8N752); test: KINOMEscan: CSNK1A1L; format: binding; conditions: 1000 nM, read-out: Percent Control
CASK = CASK (Homo sapiens, UniProt O14936); test: KINOMEscan: CASK; format: binding; conditions: 1000 nM, read-out: Percent Control
ASK1 = ASK1 (Homo sapiens, UniProt Q99683); test: KINOMEscan: ASK1; format: binding; conditions: 1000 nM, read-out: Percent Control
CHEK2 = CHEK2 (Homo sapiens, UniProt O96017); test: KINOMEscan: CHEK2; format: binding; conditions: 1000 nM, read-out: Percent Control

CASK, sequence (O14936 whole entry): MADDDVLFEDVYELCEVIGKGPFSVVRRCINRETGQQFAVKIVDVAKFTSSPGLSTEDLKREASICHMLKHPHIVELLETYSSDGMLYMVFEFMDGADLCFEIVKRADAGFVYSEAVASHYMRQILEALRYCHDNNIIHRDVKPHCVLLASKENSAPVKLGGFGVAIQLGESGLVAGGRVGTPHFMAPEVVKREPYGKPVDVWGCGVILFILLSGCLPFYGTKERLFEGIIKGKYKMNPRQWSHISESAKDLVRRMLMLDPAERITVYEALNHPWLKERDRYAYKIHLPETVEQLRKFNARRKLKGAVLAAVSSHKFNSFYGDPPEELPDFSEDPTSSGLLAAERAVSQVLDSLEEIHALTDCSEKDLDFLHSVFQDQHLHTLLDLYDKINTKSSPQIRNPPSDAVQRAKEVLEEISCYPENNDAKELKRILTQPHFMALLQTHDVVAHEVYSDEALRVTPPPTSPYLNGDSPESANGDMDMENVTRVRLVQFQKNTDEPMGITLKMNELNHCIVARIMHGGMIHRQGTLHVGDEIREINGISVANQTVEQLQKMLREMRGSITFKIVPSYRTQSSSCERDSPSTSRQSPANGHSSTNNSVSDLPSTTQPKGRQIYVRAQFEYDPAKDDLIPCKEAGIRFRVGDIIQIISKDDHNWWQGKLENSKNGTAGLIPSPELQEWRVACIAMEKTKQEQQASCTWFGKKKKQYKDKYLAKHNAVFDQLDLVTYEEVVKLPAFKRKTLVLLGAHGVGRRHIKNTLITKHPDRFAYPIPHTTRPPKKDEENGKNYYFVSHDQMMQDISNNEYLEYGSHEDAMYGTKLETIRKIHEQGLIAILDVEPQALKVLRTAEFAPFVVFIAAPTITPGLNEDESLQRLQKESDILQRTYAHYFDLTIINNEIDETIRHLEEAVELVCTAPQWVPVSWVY
MINK, sequence (Q8N4C8 whole entry): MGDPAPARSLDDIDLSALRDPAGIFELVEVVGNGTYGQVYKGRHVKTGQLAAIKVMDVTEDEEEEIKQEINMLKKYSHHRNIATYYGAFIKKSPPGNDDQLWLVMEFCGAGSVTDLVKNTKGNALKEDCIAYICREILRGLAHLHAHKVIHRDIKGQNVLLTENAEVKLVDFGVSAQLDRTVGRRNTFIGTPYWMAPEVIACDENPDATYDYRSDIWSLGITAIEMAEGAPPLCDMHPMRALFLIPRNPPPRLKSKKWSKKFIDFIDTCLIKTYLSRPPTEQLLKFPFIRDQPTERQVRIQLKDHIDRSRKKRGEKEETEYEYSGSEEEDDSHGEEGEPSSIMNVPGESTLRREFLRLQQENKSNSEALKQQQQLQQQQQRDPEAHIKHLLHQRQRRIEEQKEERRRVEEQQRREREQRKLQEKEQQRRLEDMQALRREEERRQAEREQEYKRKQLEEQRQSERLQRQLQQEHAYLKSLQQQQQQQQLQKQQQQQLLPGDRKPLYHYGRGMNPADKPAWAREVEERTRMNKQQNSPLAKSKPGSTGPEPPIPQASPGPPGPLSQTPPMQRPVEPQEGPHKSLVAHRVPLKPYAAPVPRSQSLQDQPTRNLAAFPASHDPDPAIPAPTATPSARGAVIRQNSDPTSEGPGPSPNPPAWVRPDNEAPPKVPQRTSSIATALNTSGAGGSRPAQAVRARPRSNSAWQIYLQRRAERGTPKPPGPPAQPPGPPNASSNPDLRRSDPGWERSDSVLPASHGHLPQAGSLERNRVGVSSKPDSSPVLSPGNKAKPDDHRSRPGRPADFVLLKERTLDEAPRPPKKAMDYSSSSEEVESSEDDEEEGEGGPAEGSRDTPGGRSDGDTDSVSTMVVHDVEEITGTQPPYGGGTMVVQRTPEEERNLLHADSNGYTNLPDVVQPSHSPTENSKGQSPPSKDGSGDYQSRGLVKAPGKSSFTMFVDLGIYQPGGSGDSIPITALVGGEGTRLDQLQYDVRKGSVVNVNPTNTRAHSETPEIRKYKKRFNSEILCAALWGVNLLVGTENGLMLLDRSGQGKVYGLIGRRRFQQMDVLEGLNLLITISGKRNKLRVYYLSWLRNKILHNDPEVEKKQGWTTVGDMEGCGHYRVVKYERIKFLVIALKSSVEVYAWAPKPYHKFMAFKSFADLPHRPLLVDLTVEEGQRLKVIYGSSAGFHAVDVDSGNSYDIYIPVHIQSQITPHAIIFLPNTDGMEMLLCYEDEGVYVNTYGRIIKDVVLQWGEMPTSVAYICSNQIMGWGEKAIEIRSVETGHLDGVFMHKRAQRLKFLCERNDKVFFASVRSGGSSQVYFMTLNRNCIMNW
SGK3, sequence (Q96BR1 whole entry): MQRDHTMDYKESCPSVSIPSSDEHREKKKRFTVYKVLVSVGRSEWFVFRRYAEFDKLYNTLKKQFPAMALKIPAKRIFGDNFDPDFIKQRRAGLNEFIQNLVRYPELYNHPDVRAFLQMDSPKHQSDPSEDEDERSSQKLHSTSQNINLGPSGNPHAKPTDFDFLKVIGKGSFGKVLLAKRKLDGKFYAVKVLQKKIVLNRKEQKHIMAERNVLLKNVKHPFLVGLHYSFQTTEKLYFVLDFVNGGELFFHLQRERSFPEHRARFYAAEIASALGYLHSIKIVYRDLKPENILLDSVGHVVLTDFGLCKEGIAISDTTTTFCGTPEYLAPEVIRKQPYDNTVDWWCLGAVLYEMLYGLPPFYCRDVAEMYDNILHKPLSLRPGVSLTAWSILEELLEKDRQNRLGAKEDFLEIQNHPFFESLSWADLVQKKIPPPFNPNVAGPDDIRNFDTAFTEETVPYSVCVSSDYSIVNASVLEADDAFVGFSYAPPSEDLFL
ALK, sequence (Q9UM73 19-1620): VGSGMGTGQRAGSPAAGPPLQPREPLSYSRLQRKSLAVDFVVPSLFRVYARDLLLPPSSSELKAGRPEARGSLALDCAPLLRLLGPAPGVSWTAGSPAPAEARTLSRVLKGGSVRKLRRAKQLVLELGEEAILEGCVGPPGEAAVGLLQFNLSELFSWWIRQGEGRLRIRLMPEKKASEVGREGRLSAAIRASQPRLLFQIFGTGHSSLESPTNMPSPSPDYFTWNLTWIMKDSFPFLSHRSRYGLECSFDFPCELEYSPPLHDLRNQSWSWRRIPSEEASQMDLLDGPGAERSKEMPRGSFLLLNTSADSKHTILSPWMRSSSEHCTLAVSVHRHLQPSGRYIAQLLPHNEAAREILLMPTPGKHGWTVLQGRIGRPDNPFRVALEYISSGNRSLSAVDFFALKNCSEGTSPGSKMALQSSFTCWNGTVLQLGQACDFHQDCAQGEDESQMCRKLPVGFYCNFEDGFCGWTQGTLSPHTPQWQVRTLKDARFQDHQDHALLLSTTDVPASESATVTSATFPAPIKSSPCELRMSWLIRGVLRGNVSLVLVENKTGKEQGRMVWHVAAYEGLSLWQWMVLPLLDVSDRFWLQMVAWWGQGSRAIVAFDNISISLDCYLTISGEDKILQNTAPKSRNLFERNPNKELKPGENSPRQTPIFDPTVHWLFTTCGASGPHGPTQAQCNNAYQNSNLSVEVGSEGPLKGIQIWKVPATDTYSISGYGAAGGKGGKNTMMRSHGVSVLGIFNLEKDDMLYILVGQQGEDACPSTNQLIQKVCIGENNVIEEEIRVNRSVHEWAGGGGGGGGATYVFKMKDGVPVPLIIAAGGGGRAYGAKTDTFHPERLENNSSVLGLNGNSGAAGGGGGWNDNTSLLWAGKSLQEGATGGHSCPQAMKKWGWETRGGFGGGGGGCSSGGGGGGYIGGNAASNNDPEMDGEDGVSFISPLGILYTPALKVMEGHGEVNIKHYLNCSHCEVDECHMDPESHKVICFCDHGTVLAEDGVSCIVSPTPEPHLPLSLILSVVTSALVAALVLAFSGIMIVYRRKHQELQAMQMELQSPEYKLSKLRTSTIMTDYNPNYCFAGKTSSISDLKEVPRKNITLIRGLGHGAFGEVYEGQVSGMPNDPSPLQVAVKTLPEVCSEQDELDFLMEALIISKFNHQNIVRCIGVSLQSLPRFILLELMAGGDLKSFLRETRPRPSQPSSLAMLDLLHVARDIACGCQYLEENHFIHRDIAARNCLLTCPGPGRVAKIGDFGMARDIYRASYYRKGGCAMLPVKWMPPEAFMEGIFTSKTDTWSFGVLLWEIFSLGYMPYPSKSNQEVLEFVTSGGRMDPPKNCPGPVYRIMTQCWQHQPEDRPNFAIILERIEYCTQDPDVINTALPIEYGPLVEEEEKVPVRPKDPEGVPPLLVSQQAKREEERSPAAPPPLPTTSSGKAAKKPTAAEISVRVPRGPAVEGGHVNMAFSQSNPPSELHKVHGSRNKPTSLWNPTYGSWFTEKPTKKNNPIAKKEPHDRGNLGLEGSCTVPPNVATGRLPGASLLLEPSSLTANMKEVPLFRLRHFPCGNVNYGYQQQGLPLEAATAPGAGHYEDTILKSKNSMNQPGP
RPS6KA4(Kin.Dom.2-C-terminal), sequence (O75676 372-772 limits assumed): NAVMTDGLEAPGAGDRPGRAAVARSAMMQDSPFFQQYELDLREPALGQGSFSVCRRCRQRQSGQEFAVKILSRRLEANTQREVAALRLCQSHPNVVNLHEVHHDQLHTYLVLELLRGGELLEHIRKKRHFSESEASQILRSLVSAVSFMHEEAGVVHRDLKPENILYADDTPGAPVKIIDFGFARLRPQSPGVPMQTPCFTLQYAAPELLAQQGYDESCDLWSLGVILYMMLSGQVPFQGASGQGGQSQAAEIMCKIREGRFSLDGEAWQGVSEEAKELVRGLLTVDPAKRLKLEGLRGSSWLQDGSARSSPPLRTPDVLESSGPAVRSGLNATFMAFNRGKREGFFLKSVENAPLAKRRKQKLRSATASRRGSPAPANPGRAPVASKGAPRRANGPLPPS
TYK2(JH2domain-pseudokinase), sequence (P29597 556-888 limits assumed): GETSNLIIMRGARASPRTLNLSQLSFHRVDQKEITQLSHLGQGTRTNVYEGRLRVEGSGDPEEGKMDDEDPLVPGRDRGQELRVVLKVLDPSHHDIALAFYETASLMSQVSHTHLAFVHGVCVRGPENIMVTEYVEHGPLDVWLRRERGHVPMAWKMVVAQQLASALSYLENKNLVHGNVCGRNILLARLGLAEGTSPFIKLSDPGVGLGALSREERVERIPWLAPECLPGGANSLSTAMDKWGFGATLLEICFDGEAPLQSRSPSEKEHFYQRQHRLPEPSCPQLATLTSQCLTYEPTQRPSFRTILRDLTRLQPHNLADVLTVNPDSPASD

## COc1cc(F)ccc1-c1cc(Nc2cc(CS(C)(=N)=O)ccn2)ncc1F (centres unmarked) [VIP152]
LIMK1
  remaining binding at 1 µM: 92%
MINK
  remaining binding at 1 µM: 29%
[1]
  remaining binding at 0.1 µM: 100%
[2]
  remaining binding at 1 µM: 96%
CDK4-cyclinD3
  remaining binding at 1 µM: 14%
MST1
  remaining binding at 1 µM: 92%
SGK3
  remaining binding at 0.1 µM: 100%
[3]
  remaining binding at 0.1 µM: 100%
[4]
  inhibition at 10 µM: -3%
FAK
  remaining binding at 1 µM: 83%
DDR1
  remaining binding at 1 µM: 29%
ALK
  remaining binding at 1 µM: 92%
[5]
  remaining binding at 0.1 µM: 100%
SIK
  remaining binding at 0.1 µM: 100%
OSU-CLL
  IC50: ~100 nM
ROCK1
  remaining binding at 0.1 µM: 100%
AMPK-alpha2
  remaining binding at 1 µM: 99%
TNIK
  remaining binding at 0.1 µM: 100%
[6]; 1 µM, two hours vs DMSO
  MCL1 transcript LFC: −1.231
  ZFP36 transcript LFC: −4.02
[6]; VIP152 2hr vs DMSO 2hr
  log2FoldChange A1BG: 0.4323
  log2FoldChange A1BG-AS1: 0.777
  log2FoldChange AAAS: 0.1502
  log2FoldChange AAGAB: 0.6327
  log2FoldChange AAMDC: 0.4489
CDK2
  remaining binding at 1 µM: 51%
DYRK1B
  remaining binding at 1 µM: 20%
GCN2(Kin.Dom.2,S808G)
  remaining binding at 1 µM: 100%
CSNK1A1L
  remaining binding at 1 µM: 92%
CASK
  remaining binding at 1 µM: 95%
ASK1
  remaining binding at 1 µM: 97%
CHEK2
  remaining binding at 1 µM: 77%
